Results published in patent US20090048214A1, “Methods for Treating Renal Tumors Using 2, 4-Pyrimidinediamine Drug and Prodrug Compounds” (RIGEL PHARMACEUTICALS, INC, priority 2006, published 2009).

Tests used:
EKVX [1] = details: Non-Small Cell Lung Cancer, besylate salt
SNB-19 = assay: cells; details: Homo sapiens
CCRF-CEM = details: Leukemia, besylate salt
SR = assay: cells; details: Homo sapiens
M14 [2] = assay: cells; details: Homo sapiens
OVCAR-4 [3] = details: OVCAR-4, Ovarian Cancer; besylate salt
A498 = assay: cells; details: Homo sapiens
NCI-H23 = assay: cells; details: Homo sapiens, NCI-H23, read-out: LC50
MALME-3M = details: Melanoma, besylate salt
HT29 [4] = assay: cells; details: Homo sapiens
CAKI-1 = details: CAKI-1, Renal Cancer; besylate salt
HL-60(TB) = details: Leukemia, besylate salt
HT29 [5] = details: HT29, Colon Cancer; besylate salt
HCT-15 = details: HCT-15, Colon Cancer; besylate salt
IGROV1 = details: IGROV1, Ovarian Cancer; besylate salt
PC-3 [6] = assay: cells; details: Homo sapiens
ACHN = assay: cells; details: Homo sapiens
K-562 [7] = assay: cells; details: Homo sapiens
HCT-116 [8] = assay: cells; details: Homo sapiens, HCT-116, read-out: LC50
UACC-257 = assay: cells; details: Homo sapiens
HCT-116 [9] = details: HCT-116, Colon Cancer; besylate salt
NCI/ADR-RES = details: Breast Cancer, besylate salt
MOLT-4 = assay: cells; details: Homo sapiens
EKVX [10] = assay: cells; details: Homo sapiens
HCC-2998 [11] = details: HCC-2998, Colon Cancer; besylate salt
HCC-2998 [12] = assay: cells; details: Homo sapiens
SK-OV-3 = assay: cells; details: Homo sapiens
SNB-75 = details: SNB-75, CNS Cancer; besylate salt
KM12 = details: KM12, Colon Cancer; besylate salt
NCI-H226 = assay: cells; details: Homo sapiens
PC-3 [13] = details: PC-3, Prostate Cancer; besylate salt
MDA-MB-435 = details: MDA-MB-435, Breast Cancer; besylate salt
SK-MEL-5 = details: SK-MEL-5, Melanoma; besylate salt
K-562 [14] = details: K-562, Leukemia; besylate salt
DU-145 [15] = assay: cells; details: Homo sapiens, DU-145, read-out: LC50
OVCAR-4 [16] = assay: cells; details: Homo sapiens
HOP-62 = assay: cells; details: Homo sapiens
HS 578T = details: Breast Cancer, besylate salt
M14 [17] = details: M14, Melanoma; besylate salt
DU-145 [18] = details: DU-145, Prostate Cancer; besylate salt

COc1cc(Nc2ncc(F)c(Nc3ccc4c(n3)NC(=O)C(C)(C)O4)n2)cc(OC)c1OC [Compound 1]
TGI (EKVX [1]): >1.00E−4 | IC50 (SNB-19; SNB-19, read-out: G150): > 100 µM | CC50 (SNB-19; SNB-19, read-out: LC50): > 100 µM | TGI (CCRF-CEM): >1.00E−4 | IC50 (SR; read-out: G150): 3.56 µM | CC50 (SR; read-out: LC50): > 100 µM | IC50 (M14 [2]; M14, read-out: G150): > 100 µM | CC50 (M14 [2]; M14, read-out: LC50): > 100 µM | TGI (OVCAR-4 [3]): >1.00E−4 | IC50 (A498; A498, read-out: G150): 360 nM | CC50 (A498; A498, read-out: LC50): > 100 µM | CC50 (NCI-H23): > 100 µM | TGI (MALME-3M): >1.00E−4 | IC50 (HT29 [4]; HT-29, read-out: G150): 2190 nM | CC50 (HT29 [4]; HT-29, read-out: LC50): > 100 µM | TGI (CAKI-1): 2.44E−6 | TGI (HL-60(TB)): >1.00E−4 | TGI (HT29 [5]): >1.00E−4 | TGI (HCT-15): >1.00E−4 | TGI (IGROV1): >1.00E−4 | IC50 (PC-3 [6]; PC-3, read-out: G150): 3.07 µM | CC50 (PC-3 [6]; PC-3, read-out: LC50): > 100 µM | IC50 (ACHN; read-out: G150): 1240 nM | CC50 (ACHN; read-out: LC50): > 100 µM | IC50 (K-562 [7]; K562, read-out: G150): > 100 µM | CC50 (K-562 [7]; K562, read-out: LC50): > 100 µM | CC50 (HCT-116 [8]): > 100 µM | IC50 (UACC-257; UACC-257, read-out: G150): > 100 µM | CC50 (UACC-257; UACC-257, read-out: LC50): > 100 µM | TGI (HCT-116 [9]): >1.00E−4 | TGI (NCI/ADR-RES): >1.00E−4 | IC50 (MOLT-4; MOLT-4, read-out: G150): 4.82 µM | CC50 (MOLT-4; MOLT-4, read-out: LC50): > 100 µM | IC50 (EKVX [10]; read-out: G150): 1660 nM | CC50 (EKVX [10]; read-out: LC50): > 100 µM | TGI (HCC-2998 [11]): >1.00E−4 | IC50 (HCC-2998 [12]; HCC 2998, read-out: G150): > 100 µM | CC50 (HCC-2998 [12]; HCC 2998, read-out: LC50): > 100 µM | IC50 (SK-OV-3; SK-OV-3, read-out: G150): 429 nM | CC50 (SK-OV-3; SK-OV-3, read-out: LC50): > 100 µM | TGI (SNB-75): >1.00E−4 | TGI (KM12): >1.00E−4 | IC50 (NCI-H226; NCI-H226, read-out: G150): 497 nM | CC50 (NCI-H226; NCI-H226, read-out: LC50): > 100 µM | TGI (PC-3 [13]): >1.00E−4 | TGI (MDA-MB-435): >1.00E−4 | TGI (SK-MEL-5): >1.00E−4 | TGI (K-562 [14]): >1.00E−4 | CC50 (DU-145 [15]): > 100 µM | IC50 (OVCAR-4 [16]; OVCAR-4, read-out: G150): > 100 µM | CC50 (OVCAR-4 [16]; OVCAR-4, read-out: LC50): > 100 µM | IC50 (HOP-62; HOP-62, read-out: G150): 537 nM | CC50 (HOP-62; HOP-62, read-out: LC50): > 100 µM | TGI (HS 578T): >1.00E−4 | TGI (M14 [17]): >1.00E−4 | TGI (DU-145 [18]): >1.00E−4
